Data taken from patent publication US10287530B2, “Surfactants based on monounsaturated fatty alcohol derivatives” (priority 2013, dated 2019).
Several values for one entry are separate records, joined by “and”; a condition that tells them apart may be missing. Equal values may be shown once. Read-outs that look alike come from different tables or passages of the source.

Legend:
[1] = Surfactant phase behavior study by cross-polarized microscopy; type: physicochemical; conditions: in deionized water, room temperature (20-22° C.); boundaries are estimates (±5%)
Description: Phase behavior is observed using an Olympus BH-2 cross-polarized microscope at 100-400× and room temperature (20° C. to 22° C.). The monounsaturated C11 alcohol derivatives (sulfates, ethoxylate sulfates, and alcohol ethoxylates) are compared with their saturated analogs. Samples are prepared by diluting the most concentrated product gradually with deionized water. When the surfactant concentration approaches a phase transition, the concentration is varied at 2-4% intervals to estimate the phase boundary. The actives level reported in Table 6 for each phase boundary is within ±5% of the true boundary. Samples are loaded between a microscope slide and cover glass and are allowed to equilibrate before observation. Microscopic texture is analyzed and used to determine the phase. For some samples, an AR 2000 rheometer (TA Instruments) is used to measure viscosity at 25° C. to further verify phase behavior.

[2] = type: physicochemical; conditions: for Rating: overall, versus control
Description: Surfactant candidates for water soluble herbicide applications are examined as a replacement for the anionic, nonionic, or anionic/nonionic blend portion and compared to a known industry adjuvant standard for use in paraquat, a water soluble herbicide concentrate formulation. A standard dilution test is conducted whereby the concentrates are diluted in water to determine if solubility is complete.
A known industry paraquat adjuvant (2.8 g) is added and vigorously mixed for 30 s. Deionized water (8.07 g) is added, and mixing resumes for 30 s. […] The cylinder is stoppered and inverted ten times. Solubility is recorded as complete or incomplete. Cylinders are allowed to stand and the amount (in mL) and type of separation are recorded after 30 min., 1 h, 2 h, and 24 h. Results of the solubility testing appear in Table 4 below.
An eight to ten mole alkyl phenol ethoxylate surfactant (0.7 g) is added and vigorously mixed for 30 s. Test sample (0.7 g) is added and mixing resumes for 30 s. Deionized water (4.03 g) is added, and mixing resumes for 30 s.
Test sample (0.7 g) is added and vigorously mixed for 30 s. Sodium linear alkylbenzene sulfonate (“NaLAS,” 0.7 g) is added and mixing resumes for 30 s. Deionized water (4.03 g) is added, and mixing resumes for 30 s.
Test sample (1.4 g) is added and vigorously mixed for 30 s. Deionized water (4.03 g) is added, and mixing resumes for 30 s.

[3] = Interfacial tension (IFT) against light mineral oil, synergy study with cationic surfactant; type: physicochemical; conditions: for IFT at 0.1% actives/mineral oil (blend): 1:1 molar blend of the anionic with Ammonyx Cetac 30, 0.1% actives, light mineral oil; for Calculated IFT (no synergy): expected IFT of the 1:1 molar blend with Ammonyx Cetac 30 by ideal mixing; for Synergy?: measured versus expected IFT of the 1:1 molar blend with Ammonyx Cetac 30; for IFT at 0.1% actives (single component): 0.1 wt. % active against light mineral oil, ambient temperature
Description: (§1) The surfactant blends tested are prepared at a 1:1 molar ratio without any pH adjustment. Dilutions are made using deionized water to the desired actives level. Actives amounts are wt. % unless indicated otherwise. Appearances are reported at ambient temperature for samples prepared within the last 24 h.
Interfacial tension (IFT) of all the individual components and their blends is measured at 0.1 wt. % active against light mineral oil at ambient temperature using a Kruss DSA-20 pendent drop tensiometer. The drop is blown out at 600 μL/min., and a video is recorded for 100 s. The video frames taken during the last 15 s are analyzed and used for the IFT calculation.
For blends having an IFT less than 0.5 mN/m, the IFT is determined using a spinning drop tensiometer (University of Texas 500) at 25° C. Oil density=0.877 g/cm^3 and surfactant density=0.997 g/cm^3 are used for the IFT calculation.
The expected IFT for a blend is calculated based on ideal mixing (non-synergistic) using the active component in each blend. The equation used is given as: Expected IFT=X*IFTa+(1−X)*IFTb where X is the actives % of component A, IFTa is the IFT of component A, and IFTb is the IFT of component B. If the measured IFT for a blend is less than the expected IFT, then the blend is synergistic. If the measured IFT for a blend is higher than the expected IFT, the system is antagonistic.

[4] = Appearance and solubility of surfactants and of 1:1 molar blends with cationic surfactant; type: physicochemical; conditions: for Appearance, 1.0%: 1:1 molar blend of the anionic with Ammonyx Cetac 30, 1.0% actives; for Appearance, 1.0% / Appearance, 0.1%: ambient temperature; for Appearance, 0.1%: 1:1 molar blend of the anionic with Ammonyx Cetac 30, 0.1% actives
Description: as §1

[5] = tested on: zein, yellow corn (maize) protein
Description: The zein test is based on solubilization by surfactants of a yellow corn (maize) protein that is normally insoluble in water unless it is denatured. The test gravimetrically determines the amount of zein dissolved by a surfactant solution. The solubility of zein in surfactant solutions correlates well with skin irritation or roughness caused by the surfactant. […] A higher zein number corresponds to a greater degree of irritation.
A 1% actives solution of each test surfactant (120 mL) is prepared. The pH of each solution is adjusted to about 7.0 with dilute aq. sulfuric acid or dilute aq. sodium hydroxide. The surfactant solution is warmed to 45° C. Zein powder (1.50 g) is added to each of three jars. Surfactant (25.0 g of 1% actives solution) is added to each jar, and to one empty jar to be used as a blank. The solutions are mixed using magnetic stirring on a temperature-controlled hotplate at 45° C. for 60 min. Each mixture is then centrifuged (2500 rpm, 15 min.), and undissolved zein powder is isolated by vacuum filtration. The residue is washed with deionized water and dried (55° C., 24 h) to constant weight. The amount of undissolved zein protein is found gravimetrically, and the results from three runs are averaged to give the % of solubilized zein and zein number.

[6] = Anionic test sample, 342 ppm water
[7] = Nonionic test sample, 342 ppm water
[8] = Adjuvant (anionic/nonionic) test sample, 342 ppm water
[9] = corn (maize), 60 min, 1 % actives, pH 7

1-Undecanol, 1EO Ether Sulfate, Ammonium Salt [Sat. 1EO NH4 sulfate]
Estimated Phase Region as a Function of % Actives Level: Cubic [1]: 58-67 % actives | Estimated Phase Region as a Function of % Actives Level: Hexagonal [1]: 26-58 % actives | Estimated Phase Region as a Function of % Actives Level: Isotropic Clear [1]: 0-26 % actives | Estimated Phase Region as a Function of % Actives Level: Lamellar [1]: 67-85 % actives | Estimated Phase Region as a Function of % Actives Level: Solid/gum/paste [1]: 85-100 % actives | Emulsion stability, mL separation, 1 h [2, 6]: 0 mL | Emulsion stability, mL separation, 24 h [2, 7]: 0 mL | Rating [2]: good | IFT at 0.1% actives/mineral oil (blend) [3]: 0.85 mN/m | Calculated IFT (no synergy) [3]: 6.2 mN/m | Synergy? [3]: high | IFT at 0.1% actives (single component) [3]: 12.40 mN/m

Undecylenic Alcohol, 3EO Ether Sulfate, Sodium Salt [Unsat. C11 alcohol 3EO Na sulfate]
Estimated Phase Region as a Function of % Actives Level: Isotropic Clear [1]: 0-70 % actives | Estimated Phase Region as a Function of % Actives Level: Solid/gum/paste [1]: 80-100 % actives | Estimated Phase Region as a Function of % Actives Level: Solid/isotropic [1]: 70-80 % actives | Emulsion stability, mL separation, 1 h [2, 8]: 0 mL | Emulsion stability, mL separation, 1 h [2, 6]: 0 mL | Emulsion stability, mL separation, 24 h [2, 6]: 0 mL | Emulsion stability, mL separation, 1 h [2, 7]: 0.2 mL | Emulsion stability, mL separation, 24 h [2, 7]: 0.5 mL | Rating [2]: good | IFT at 0.1% actives/mineral oil (blend) [3]: 0.17 mN/m | Calculated IFT (no synergy) [3]: 2.73 mN/m | Synergy? [3]: high | IFT at 0.1% actives (single component) [3]: 5.10 mN/m | Solubility [4]: good | Appearance, 1.0% [4]: hazy liquid | % solubilized zein ([5]; 1% actives solution, pH about 7.0, 45° C., 60 min, average of three runs): 16.5% | zein number ([5]; relative to 1% actives Stepanol WA-Extra PCK (SLS) control = 100, higher = more irritating, average of three runs): 31.6

1-Undecanol, 3EO Ether Sulfate, Sodium Salt [Sat. C11 alcohol 3EO Na sulfate]
Estimated Phase Region as a Function of % Actives Level: Hexagonal [1]: 33-58 % actives | Estimated Phase Region as a Function of % Actives Level: Isotropic Clear [1]: 0-33 % actives | Estimated Phase Region as a Function of % Actives Level: Lamellar [1]: 58-82 % actives | Estimated Phase Region as a Function of % Actives Level: Solid/gum/paste [1]: 82-100 % actives | Emulsion stability, mL separation, 1 h [2, 8]: 0 mL | Emulsion stability, mL separation, 1 h [2, 6]: 0 mL | Emulsion stability, mL separation, 24 h [2, 6]: 0 mL | Emulsion stability, mL separation, 1 h [2, 7]: 0.1 mL | Emulsion stability, mL separation, 24 h [2, 7]: 0.5 mL | Rating [2]: good | IFT at 0.1% actives/mineral oil (blend) [3]: 0.03 mN/m | Calculated IFT (no synergy) [3]: 4.58 mN/m | Synergy? [3]: very high | IFT at 0.1% actives (single component) [3]: 8.80 mN/m | Solubility [4]: fair-poor | Appearance, 0.1% [4]: hazy liquid | Appearance, 1.0% [4]: separated | % solubilized zein [5]: 22.3% | zein number [5]: 44.9

CCCCCCCCCCCOS(=O)(=O)[O-].[Na+] [Sat. C11 alcohol Na sulfate, 1-Undecanol Sulfate, Sodium Salt]
Estimated Phase Region as a Function of % Actives Level: Hexagonal [1]: 33-43 % actives | Estimated Phase Region as a Function of % Actives Level: Isotropic Clear [1]: 0-33 % actives | Estimated Phase Region as a Function of % Actives Level: Solid/gum/paste [1]: 43-100 % actives | Emulsion stability, mL separation, 1 h [2, 8]: 0.2 mL | Emulsion stability, mL separation, 24 h [2, 8]: 0.4 mL | sol (solubility) [2, 8]: I | sol (solubility) ([2]; Anionic test sample: replaces anionic portion, paraquat concentrate in 342 ppm water, 30° C.): S | Emulsion stability, mL separation, 1 h [2, 6]: 0 mL | Emulsion stability, mL separation, 24 h [2, 6]: 0 mL | sol (solubility) ([2]; Nonionic test sample: replaces nonionic portion (with NaLAS), 342 ppm water): I | Emulsion stability, mL separation, 1 h [2, 7]: 0.2 mL | Emulsion stability, mL separation, 24 h [2, 7]: 0.3 mL | Rating [2]: good | IFT at 0.1% actives/mineral oil (blend) [3]: 2.67 mN/m | Calculated IFT (no synergy) [3]: 8.35 mN/m | Synergy? [3]: above average | IFT at 0.1% actives (single component) [3]: 16.34 mN/m | Solubility ([4]; 1:1 molar blend of the anionic with Ammonyx Cetac 30): poor | Appearance, 0.1% [4]: separated | Appearance, 1.0% [4]: separated | % solubilized zein [5, 9]: 52.9% | zein number [5, 9]: 107

Undecylenic Alcohol, 1EO Ether Sulfate, Ammonium Salt [Unsat. 1EO NH4 sulfate]
Estimated Phase Region as a Function of % Actives Level: Hexagonal [1]: 31-58 % actives | Estimated Phase Region as a Function of % Actives Level: Isotropic Clear [1]: 0-31 % actives | Estimated Phase Region as a Function of % Actives Level: Lamellar [1]: 58-91 % actives | Estimated Phase Region as a Function of % Actives Level: Solid/gum/paste [1]: 91-100 % actives | Emulsion stability, mL separation, 1 h [2, 8]: 0 mL | Emulsion stability, mL separation, 24 h [2, 8]: 0 mL | Emulsion stability, mL separation, 24 h [2, 6]: 0 mL | Emulsion stability, mL separation, 1 h [2, 7]: 0 mL | Rating [2]: good | IFT at 0.1% actives/mineral oil (blend) [3]: 0.60 mN/m | Calculated IFT (no synergy) [3]: 8.8 mN/m | Synergy? [3]: very high | IFT at 0.1% actives (single component) [3]: 17.22 mN/m

CCCCCCCCCCCCCCCC[N+](C)(C)C.[Cl-] [Ammonyx ® Cetac 30 (cetrimonium CI), cetrimonium CI]
IFT at 0.1% actives (single component) [3]: 0.35 mN/m and 0.38 mN/m
